Target: T1, activated JNK3 (Homo sapiens, UniProt P53779)
T1 construct: One such construct encodes amino acid residues Ser40-Glu402 of JNK3α1 and is preceded by Met and Gly residues; Met-Gly (initiation Met plus Gly added to create the NcoI site) (N); made in house; host or cells: E. coli BL21 (DE3)
Test: JNK3 inhibition, spectrophotometric coupled-enzyme assay
Format: biochemical
Conditions: read-out: Activity in the JNK3 Inhibition Assay (Ki rating)
Excerpt: A BLAST search of the EST database using the published JNK3α1 cDNA as a query identified an EST clone (#632588) that contained the entire coding sequence for human JNK3α1. Polymerase chain reactions (PCR) using pfu polymerase (Strategene) were used to introduce restriction sites into the cDNA for cloning into the pET-15B expression vector at the NcoI and BamHI sites. The protein was expressed in E. coli. […] This truncation corresponds to Ser 2 of JNK1 and JNK2 proteins, and is preceded by a methionine (initiation) and a glycine residue. The glycine residue was added in order to introduce an NcoI site for cloning into the expression vector. In addition, systematic C-terminal truncations were performed by PCR to identify a construct that give rise to diffraction-quality crystals.
5 mg of JNK3 was diluted to 0.5 mg/ml in 50 mM HEPES buffer, pH 7.5, containing 100 mM NaCl, 5 mM DTT, 20 mM MgCl2 and 1 mM ATP. GST-MKK7(DD) was added at a molar ratio of 1:2.5 GST-MKK7:JNK3. After incubation for 30 minutes at 25° C., the reaction mixture was concentrated 5-fold by ultrafiltration in a Centriprep-30 (Amicon, Beverly, Mass.), diluted to 10 ml and an additional 1 mM ATP added. This procedure was repeated three times to remove ADP and replenish ATP. The final addition of ATP was 5 mM and the mixture incubated overnight at 4° C.
The activated JNK3/GST-MKK7(DD) reaction mixture was exchanged into 50 mM HEPES buffer, pH 7.5, containing 5 mM DTT and 5% glycerol (w/v) by dialysis or ultrafiltration. The reaction mixture was adjusted to 1.1 M potassium phosphate, pH 7.5, and purified by hydrophobic interaction chromatography (at 25° C.) using a Rainin Hydropore column. […] Activated JNK3 (i.e. doubly phosphorylated JNK3) was stored at −70° C. at 0.25-1 mg/ml.
Compounds were assayed for the inhibition of JNK3 by a spectrophotometric coupled-enzyme assay. In this assay, a fixed concentration of activated JNK3 (10 nM) was incubated with various concentrations of a potential inhibitor dissolved in DMSO for 10 minutes at 30° C. in a buffer containing 0.1 M HEPES buffer, pH 7.5, containing 10 mM MgCl2, 2.5 mM phosphoenolpyruvate, 200 μM NADH, 150 μg/mL pyruvate kinase, 50 μg/mL lactate dehydrogenase, and 200 μM EGF receptor peptide. […] The reaction was initiated by the addition of 10 μM ATP and the assay plate is inserted into the spectrophotometer's assay plate compartment that was maintained at 30° C. The decrease of absorbance at 340 nm was monitored as a function of time. The rate data as a function of inhibitor concentration was fitted to competitive inhibition kinetic model to determine the Ki.

T1 sequence (P53779 40-402): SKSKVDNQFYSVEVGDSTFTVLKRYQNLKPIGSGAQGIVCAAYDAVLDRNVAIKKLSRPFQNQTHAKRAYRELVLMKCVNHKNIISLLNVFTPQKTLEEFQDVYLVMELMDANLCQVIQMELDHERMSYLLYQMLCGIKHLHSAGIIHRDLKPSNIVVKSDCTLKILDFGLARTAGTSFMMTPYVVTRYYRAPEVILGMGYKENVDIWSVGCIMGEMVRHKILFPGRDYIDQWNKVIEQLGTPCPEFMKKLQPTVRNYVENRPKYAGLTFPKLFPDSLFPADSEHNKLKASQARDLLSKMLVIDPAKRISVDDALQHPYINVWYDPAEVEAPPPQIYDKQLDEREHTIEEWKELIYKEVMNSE

SMILES | Ki
COc1cc(C(=O)Nc2nccc(-c3c(-c4cccc([N+](=O)[O-])c4)noc3C)n2)cc(OC)c1OC [IIIA-34] | > 1000 nM
CC(=O)Nc1nccc(-c2c(-c3ccc(F)cc3)noc2C)n1 [XA-2] | > 1000 nM
Cc1cccc(C(=O)Nc2nccc(-c3c(-c4cccc(F)c4)noc3C)n2)c1 [IIIA-48] | 100 to 1000 nM
COc1cccc(C(=O)Nc2nccc(-c3c(-c4c(F)cccc4F)noc3C)n2)c1 [IIIA-65] | 100 to 1000 nM
COc1cccc(C(=O)Nc2nccc(-c3c(-c4ccccc4F)noc3C)n2)c1 [IIIA-55] | 100 to 1000 nM
COc1cc(OC)cc(C(=O)Nc2nccc(-c3c(-c4cccc(C#N)c4)noc3C)n2)c1 [IIIA-41] | > 1000 nM
Cc1onc(-c2ccccc2)c1-c1ccnc(NC(=O)c2ccccc2F)n1 [IIIA-3] | 100 to 1000 nM
Cc1ccc(C(=O)Nc2nccc(-c3c(-c4ccccc4F)noc3C)n2)cc1 [IIIA-60] | 100 to 1000 nM
COc1cc(OC)cc(C(=O)Nc2nccc(-c3c(-c4c(F)cccc4F)noc3C)n2)c1 [IIIA-66] | 100 to 1000 nM
Cc1ccc2ccccc2c1Nc1nccc(-c2c(-c3ccccc3)noc2C)n1 [IIAA-15] | 100 to 1000 nM
COc1cc(C(=O)Nc2nccc(-c3c(-c4ccccc4C)noc3C)n2)cc(OC)c1OC [IIIA-18] | 100 to 1000 nM
Cc1onc(-c2ccc(Cl)c(Cl)c2)c1-c1ccnc(Nc2ccccc2)n1 [IIA-15] | 100 to 1000 nM
Cc1onc(-c2cccc(F)c2F)c1-c1ccnc(Nc2ccccc2)n1 [IIA-80] | 100 to 1000 nM

Continued, values first:

Ki | SMILES
< 100 nM | OCc1onc(-c2ccc(F)cc2)c1-c1ccnc(NC2CCCCC2)n1 [XIA-45, [4-(2-Cyclohexylamino-pyrimidin-4-yl)-3-(4-fluoro-phenyl)-isoxazol-5-yl]methanol]
100 to 1000 nM | Cc1ccc2cc(Nc3nccc(-c4c(-c5cccc([N+](=O)[O-])c5)noc4C)n3)ccc2n1 [IIAA-22]
< 100 nM | Cc1onc(-c2ccccc2)c1-c1ccnc(Nc2ccccc2F)n1 [IIA-59]
< 100 nM | Cc1onc(-c2ccccc2)c1-c1ccnc(Nc2cccc(C#N)c2)c1 [IIA-67]
100 to 1000 nM | COc1cccc(C(=O)Nc2nccc(-c3c(-c4cccc(OCc5ccccc5)c4)noc3C)n2)c1 [IIIA-31]
100 to 1000 nM | COc1cc(C(=O)Nc2nccc(-c3c(-c4c(F)cccc4F)noc3C)n2)cc(OC)c1OC [IIIA-72]
100 to 1000 nM | Cc1onc(-c2ccccc2Br)c1-c1ccnc(Nc2ccccc2)n1 [IIA-79]
100 to 1000 nM | Cc1onc(-c2ccccc2)c1-c1ccnc(NC(=O)c2ccccc2)n1 [IIIA-1]
< 100 nM | Cc1onc(-c2ccccc2)c1-c1ccnc(Nc2ccc(-c3ccccc3)cc2)n1 [IIA-44]
< 100 nM | CSc1ccc(Nc2nccc(-c3c(-c4ccccc4)noc3C)n2)cc1 [IIA-46]
< 100 nM | COc1ccc2cc(Nc3nccc(-c4c(-c5ccccc5)noc4C)n3)ccc2c1 [IIAA-10]
< 100 nM | Cc1cccc(Nc2nccc(-c3c(-c4ccccc4C)noc3C)n2)c1 [IIA-108]
< 100 nM | CC(=O)c1cccc(Nc2nccc(-c3c(-c4ccccc4)noc3C)n2)c1 [IIA-39]
< 100 nM | Cc1ccnc(Nc2nccc(-c3c(-c4ccccc4)noc3C)n2)c1 [IIAA-12]
< 100 nM | Cc1onc(-c2ccccc2)c1-c1ccnc(Nc2cccc(CCC(=O)O)c2)c1 [IIA-132]
< 100 nM | COCCOCc1onc(-c2ccc(F)cc2)c1-c1ccnc(NC2CCCCC2)n1 [XIA-49]
< 100 nM | Cc1onc(-c2c(F)cccc2F)c1-c1ccnc(Nc2cccc(F)c2)n1 [IIA-94]

From patent publication US6693108B2, “Inhibitors of c-JUN N terminal kinases (JNK) and other protein kinases” (Vertex Pharmaceuticals Incorporated, priority 1999, dated 2004)
